The results in this text go back to PMC10258243, “Identification and characterization of novel marine oxasqualenoid yucatecone against Naegleria fowleri” (International Journal for Parasitology: Drugs and Drug …, 2023).

Read-outs that look alike come from different tables or passages of the source. Some results are limits rather than exact numbers.

By IC50 is commonly meant the concentration that inhibits the measured activity by half. Usually CC50 stands for the concentration at which the toxic effect on the cells reaches its halfway point.

Data set [1] relates to N. fowleri ATCC® 30215™. The data set can be described thus: alamarBlue colorimetric activity assay, trophozoites. The format is cell-based, Naegleria fowleri. To be noted: for IC50: Naegleria fowleri, read-out: N. fowleri ATCC® 30215™ IC50; for N. fowleri ATCC® 30215™ SI (CC50/IC50): selectivity index. Here is the method:
(§1) The activity evaluation of the molecules was carried out in two different N. fowleri strains (ATCC® 30808™ and ATCC® 30215™) from the American Type Culture Collection (LG Promochem, Barcelona, Spain). The cytotoxicity of the compounds was evaluated using a murine macrophages cell line (ATCC® TIB-67). Cells were grown as previously described ([Rizo-Liendo et al., 2020]).
(§2) A colorimetric assay based on the alamarBlue® reagent was performed to evaluate the activity of the compounds in two different N. fowleri strains (ATCC® 30808™ and ATCC® 30215™). The same protocol optimized by Rizo-Liendo et al. was followed in these assays ([Rizo-Liendo et al., 2019]). Briefly, N. fowleri trophozoites (2 × 10^5 cells/mL) were incubated with serial dilutions (in the same culture media) of the compounds in a 96 well microtiter plate. Next, the alamarBlue® reagent was added and the plates were incubated at 37 °C. After 48 h, the fluorescence was read in an EnSpire Multimode Plate Reader (Perkin Elmer, Madrid, Spain) using a wavelength of excitation of 570 nm and a wavelength of emission of 585 nm.
(§3) All experiments were carried out in triplicate and mean values were also calculated.

Data set [2] deals with N. fowleri ATCC® 30808™. Described as above. The settings on record: for IC50: Naegleria fowleri, read-out: N. fowleri ATCC® 30808™ IC50; for N. fowleri ATCC® 30808™ SI (CC50/IC50): selectivity index. The format is cell-based, Naegleria fowleri. Here is the method:
as §1, §2, §3

Data set [3] is described as follows: alamarBlue cytotoxicity assay. The format is cell-based. To be noted: mouse, J774A.1, 24 h, mean ± SD, read-out: Murine macrophages CC50. Here is the method:
as §1
In order to evaluate the cytotoxicity of the compounds a murine macrophages cell line (ATCC® TIB-67) was used. A known concentration of cells (10^5 cells/mL) was incubated with serial dilutions of the molecules. After that, the alamarBlue® reagent was added and the plates were incubated for 24 h at 37 °C and in a 5% of CO2 atmosphere ([Arberas-Jiménez et al., 2020]). The same alamarBlue® based protocol described in the section above was assessed to obtain de cytotoxic concentration 50 (CC50).
In general terms: The colour change of resazurin is a common sign of viable cells or microbes.

In data set [4] the test system is Cysts of N. fowleri ATCC® 30808™. The data set can be described thus: alamarBlue activity assay against cysts. The format is cell-based. To be noted: Naegleria fowleri, ATCC30808, read-out: IC50 against N. fowleri cysts. Here is the method: Cysts of N. fowleri ATCC® 30808™ strain were used in these assays. Cysts were obtained as previously described and performing the protocol optimized by our group ([Arberas-Jiménez et al., 2022]). Mature cysts (2 × 10^5 cells/mL) were incubated with serial dilutions of yucatecone during 24 h at 37 °C. Subsequently, the media was removed and fresh bactocasitone was added with the aim to facilitate the excystation. Finally, the alamarBlue® reagent was added and the plates were incubated for 72 more hours at 37 °C prior to reading the fluorescence and determining the IC50 as described in section 2.4.

The subject of data set [5] is N. fowleri ATCC® 30808™ trophozoites. The data set can be described thus: Hoechst 33342/propidium iodide double stain for chromatin condensation. The class given is cell-based, Naegleria fowleri. To be noted: IC50 and IC90 of compound, 24 h. Here is the method: (§4) The aim of these assays was to evaluate the presence of different metabolic events that are shown in programmed cell death like process (PCD-like) undergoing cells. […] After the treatment of the cells with these concentrations of the molecules, a 50% and a 10%, respectively, of the amoebae in the well remain as viable. Finally, the protocol for each kit was performed following manufacturers’ instructions. Moreover, the percentage of stained cells after the incubation of the treated and non-treated cells with each kit and the ratio of fluorescence between the aggregate and monomer forms of the JC-1 was evaluated. For this, the EVOS M5000 Cell Imaging System (Life Technologies, Madrid, Spain) was used and each experiment was performed in triplicate. In each experiment five different images were evaluated with a minimum number of cells of 80.
A double stain detection kit Hoechst 33342/propidium iodide (PI) (Life Technologies, Madrid, Spain) and an EVOS M5000 Cell Imaging System (Life Technologies, Madrid, Spain) were used in this experiment. The assay was performed following manufacturer's instruction.
This kit enables to distinguish between three different group of cells: A light blue fluorescence corresponds to live cells whereas in the treated cells an intense blue fluorescence is shown. Finally, red fluorescence appears in dead cells as the IP binds to their DNA.

Data set [6] has the same test system. Description: SYTOX Green plasmatic membrane permeability. The class given is cell-based, Naegleria fowleri. To be noted: IC50 and IC90 of compound, 24 h. Here is the method: as §4
The SYTOX Green kit (Life Technologies, Madrid, Spain) was used for the evaluation of the cellular plasmatic membrane damage. This stain binds to the DNA of those cells who have suffered alterations in the permeability of the plasmatic membrane and emits a high green fluorescence. […] This assay was performed following manufacturer's instruction and modified by [Sifaoui et al. (2018)]. An EVOS M5000 Cell Imaging System (Life Technologies, Madrid, Spain) was used to obtain the images.

The test system is the same in data set [7]. The data set can be described thus: CellROX Deep Red intracellular ROS. The format is cell-based, Naegleria fowleri. The settings on record: IC50 and IC90 of compound, 24 h. As to the method: as §4
The CellROX Deep Red fluorescent assay (Invitrogen, Termo Fisher Scientifc, Madrid, Spain) was used to perform the ROS levels evaluation. After the cell incubation with the yucatecone the stain was added and incubated for half an hour in the dark. Finally, images were obtained with an EVOS M5000 Cell Imaging System (Life Technologies, Madrid, Spain). The presence of ROS is detected by intense red fluorescence.

The test system is the same in data set [8]. Description: JC-1 mitochondrial membrane potential. The format is cell-based, Naegleria fowleri. To be noted: IC50 and IC90 of compound, 24 h. Here is the method: as §4
The mitochondrial membrane potential decrease was determined using the JC-1 Mitochondrial Membrane Potential Assay Kit (Cayman Chemicals, Vitro SA, Madrid, Spain). The JC-1 dye presents potential-dependent accumulation in mitochondria. At high membrane potentials (healthy cells) JC-1 dye accumulates as “J-aggregates” in the mitochondria and emits red fluorescence whereas at low membrane potentials (cells undergoing PCD-like responses) the dye is presented in monomeric form in the cytoplasm, emitting green fluorescence. […]

Data set [9] has as its system N. fowleri trophozoites. Description: Celltiter-Glo ATP level measurement. The class given is cell-based, Naegleria fowleri. Here is the method:
as §4
The ATP level measurement was performed with the Celltiter-Glo® Luminescent Cell Viability Assay (Promega Biotech Ibérica, Madrid, Spain). […]
(In ATP-based viability assays light output follows the ATP content of the culture.)

Setting [10] is: ATCC30215, trophozoite stage, 48 h, mean ± SD, triplicate.
The mark [11] stands for this setting: ATCC30808, trophozoite stage, 48 h, mean ± SD, triplicate, N/A = no activity observed.

`C=C(CCC(=O)C1(C)CCC(C(C)(C)O)O1)C1CCC2OC(C3(C)CCC(Br)C(C)(C)O3)CCC2(C)O1` (stereo not shown) [18-KetoDT (6), 18-ketodehydrothyrsiferol]: the IC50 was 12.7 ± 2.64 µM in data set [1] (setting [10]) and 15.3 ± 2.82 µM in [2] (setting [11]). Also, the “N. fowleri ATCC® 30215™ SI (CC50/IC50)” value in data set [1] is 3.17. Moreover, the “N. fowleri ATCC® 30808™ SI (CC50/IC50)” value in data set [2] stood at 2.61. In [3], the half-maximal cytotoxic concentration (CC50) at 24 h was found to be 40 ± 1.06 µM.
`C[C@@H]1[C@H](O)[C@@H](C)/C=C/C=C/C=C/C=C/C=C/C=C/C=C/[C@H](O[C@@H]2O[C@H](C)[C@@H](O)[C@H](N)[C@@H]2O)C[C@@H]2O[C@](O)(C[C@@H](O)C[C@@H](O)[C@H](O)CC[C@@H](O)C[C@@H](O)CC(=O)O[C@H]1C)C[C@H](O)[C@H]2C(=O)O` [Amphotericin B, reference compound]: the results for the IC50 in data set [1] (setting [10]) and in [2] (setting [11]) were 0.16 ± 0.02 µM and 0.12 ± 0.03 µM, respectively. For the same molecule, the “N. fowleri ATCC® 30215™ SI (CC50/IC50)” value in data set [1] was greater than 1204.82. For the same molecule, the “N. fowleri ATCC® 30808™ SI (CC50/IC50)” value in [2] is given as greater than 1652.89. Further, the CC50 at 24 h in [3] (J774A.1 murine macrophage cell line (ATCC TIB-67)) was greater than 200 µM.
Regarding `CCCCCCCCCCCCCCCCOP(=O)([O-])OCC[N+](C)(C)C` [Miltefosine, reference compound], the results for the concentration for half-maximal inhibition (IC50) in [1] (setting [10]) and in [2] (setting [11]) were 81.6 ± 7.23 µM and 38.7 ± 4.23 µM, respectively. Also, the “N. fowleri ATCC® 30215™ SI (CC50/IC50)” value in data set [1] was found to be 1.57. Moreover, the “N. fowleri ATCC® 30808™ SI (CC50/IC50)” value in data set [2] is listed as 3.30.
With `CC(CCC(=O)C1(C)CCC(C(C)(C)O)O1)C1CCC2OC(C3(C)CCC(Br)C(C)(C)O3)CCC2(C)O1` (stereo not shown) [Yucatecone (4), yucatecone], the IC50 in data set [1] (ATCC30215, 48 h) is 16.2 ± 1.23 µM; in [2] (ATCC30808, 48 h), 28.5 ± 5.04 µM; in data set [4], 9.43 ± 1.48 µM. In data set [1], the “N. fowleri ATCC® 30215™ SI (CC50/IC50)” value is reported as greater than 5.23. The “N. fowleri ATCC® 30808™ SI (CC50/IC50)” value in [2] and in data set [2] (listed as Yucatecone) was greater than 2.98 throughout. In addition, the CC50 at 24 h in data set [3] was greater than 85 µM. Moreover, the “chromatin condensation (Hoechst 33342)” value in [5] was “induces chromatin condensation”. Further, in [5], the propidium iodide staining entry was “no fluorescence is shown”. Besides, the “plasma membrane permeability (SYTOX Green)” value in data set [6] is recorded as “caused plasma membrane permeabilty damage”. In data set [7], the “intracellular ROS level (CellROX Deep Red)” value is reported as “increased the intracellular ROS level production”. Further, the “mitochondrial membrane potential (JC-1)” value in data set [8] is “induces the depolarization of the mitochondrial membrane potential”. The “decrease of ATP production” value in data set [9] (treated with the IC50, compared to negative control) amounted to 54.80%; in [9] (treated with the IC90, compared to negative control) it was 90.44%.
